In patent publication US20190322676A1, “CERAMIDE GALACTOSYLTRANSFERASE INHIBITORS FOR THE TREATMENT OF DISEASE” (BioMarin Pharmaceutical Inc., priority 2016, published 2019) one finds IC50 data, which are given here for 21 molecules.

As a reminder, the IC50 is the concentration that inhibits the measured activity by half. A higher IC50 goes with weaker potency.

The target in the assay is T1, human CGT (ceramide galactosyltransferase), CHO/CGT lysate (Homo sapiens, UniProt Q16880).
T1 construct: Full-length human CGT cDNA was cloned into the BamH1/Xho1 site of pcDNA3.1 (+); expressed in transfected cells; host or cells: Chinese hamster ovary (CHO) cells; lysate prepared with M-PER
T1 sequence (Q16880 21-541): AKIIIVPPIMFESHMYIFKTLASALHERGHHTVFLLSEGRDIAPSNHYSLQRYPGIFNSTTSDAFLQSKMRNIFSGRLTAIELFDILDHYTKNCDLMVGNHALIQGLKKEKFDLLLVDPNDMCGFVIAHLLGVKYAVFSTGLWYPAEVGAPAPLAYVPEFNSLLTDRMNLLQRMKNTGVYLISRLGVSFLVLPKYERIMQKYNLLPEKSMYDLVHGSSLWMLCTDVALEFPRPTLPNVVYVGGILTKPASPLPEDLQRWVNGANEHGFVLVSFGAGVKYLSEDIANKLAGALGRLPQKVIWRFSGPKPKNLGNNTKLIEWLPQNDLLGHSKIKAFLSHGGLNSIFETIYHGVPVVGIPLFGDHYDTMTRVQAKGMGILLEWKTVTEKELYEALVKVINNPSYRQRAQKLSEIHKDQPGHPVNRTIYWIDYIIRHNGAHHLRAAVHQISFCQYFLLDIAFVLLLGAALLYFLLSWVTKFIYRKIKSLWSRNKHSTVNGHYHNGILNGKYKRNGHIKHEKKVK
The assay is described as follows: CGT enzyme assay, RapidFire/MS/MS readout (Table 1 ranges with one asterisk *). The conditions noted are these: RapidFire method (range with one asterisk *). The class given is biochemical. Summed up: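 Lysate (4 μg) of CHO cells transfected with full-length human CGT incubated 1 h at 37 °C with compound (0.001–50 μM) in pH 7.2 HEPES buffer with 10 μM C6-NBD-dihydro-ceramide, 17.5 μM UDP-galactose, Mg2+/Mn2+, CHAPS, BSA, 0.5% DMSO; ** set also contained 0.01% Tween 80. Product quantified by RapidFire/MS/MS, normalized to internal standard; IC50 from sigmoidal variable-slope fits.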
`CCOc1ccc(C(F)(F)[C@H](C(=O)N2C3CCC2CC(N)C3)N(C)S(=O)(=O)c2ccc3cc(OC4CCCC4)ccc3c2)cc1` (stereo partly drawn) [Compound 114-2, N-((2S)-3-(3-amino-8-azabicyclo[3.2.1]octan-8-yl)-1-(4-ethoxyphenyl)-1,1-difluoro-3-oxopropan-2-yl)-6-(cyclopentyloxy)-N-methylnaphthalene-2-sulfonamide] returned a concentration for half-maximal inhibition (IC50) of 10 to 30 µM. Regarding `CN([C@H](C(=O)N1C2CCC1CC(N)C2)C(F)(F)c1ccc(OCCN2CCOCC2)cc1)S(=O)(=O)c1ccc2cc(OC3CCCC3)ccc2c1` (stereo partly drawn) [Compound 115-1, N-((2R)-3-(3-amino-8-azabicyclo[3.2.1]octan-8-yl)-1,1-difluoro-1-(4-(2-morpholinoethoxy)phenyl)-3-oxopropan-2-yl)-6-(cyclopentyloxy)-N-methylnaphthalene-2-sulfonamide], the half-maximal inhibitory concentration (IC50) was in the range of 1 to 10 µM. In the case of `CN([C@@H](C(=O)N1C2CCC1CC(N)C2)C(F)(F)c1ccc(OCCN2CCOCC2)cc1)S(=O)(=O)c1ccc2cc(OC3CCCC3)ccc2c1` (stereo partly drawn) [Compound 115-2, N-((2S)-3-(3-amino-8-azabicyclo[3.2.1]octan-8-yl)-1,1-difluoro-1-(4-(2-morpholinoethoxy)phenyl)-3-oxopropan-2-yl)-6-(cyclopentyloxy)-N-methylnaphthalene-2-sulfonamide], the IC50 is 10 to 30 µM. The result for `CN([C@H](C(=O)N1C2CCC1CC(N)C2)C(F)(F)c1ccc(OCCN2CCCCC2)cc1)S(=O)(=O)c1ccc2cc(OC3CCCC3)ccc2c1` (stereo partly drawn) [Compound 116-1, N-((2R)-3-(3-amino-8-azabicyclo[3.2.1]octan-8-yl)-1,1-difluoro-3-oxo-1-(4-(2-(piperidin-1-yl)ethoxy)phenyl)propan-2-yl)-6-(cyclopentyloxy)-N-methylnaphthalene-2-sulfonamide] reads 30 to 100 µM; that for `CN([C@@H](C(=O)N1C2CCC1CC(N)C2)C(F)(F)c1ccc(OCCN2CCCCC2)cc1)S(=O)(=O)c1ccc2cc(OC3CCCC3)ccc2c1` (stereo partly drawn) [Compound 116-2, N-((2S)-3-(3-amino-8-azabicyclo[3.2.1]octan-8-yl)-1,1-difluoro-3-oxo-1-(4-(2-(piperidin-1-yl)ethoxy)phenyl)propan-2-yl)-6-(cyclopentyloxy)-N-methylnaphthalene-2-sulfonamide], 30 to 100 µM. On to `NC1CCN(C(=O)[C@@H](NS(=O)(=O)c2ccc(OCC3CCCCC3)cc2)C(F)(F)c2ccc(-c3ccc(Cl)s3)cc2)CC1` [Compound 117-1, (R)—N-(3-(4-aminopiperidin-1-yl)-1-(4-(5-chlorothiophen-2-yl)phenyl)-1,1-difluoro-3-oxopropan-2-yl)-4-(cyclohexylmethoxy)benzenesulfonamide], for which the concentration for half-maximal inhibition (IC50) lay in the range of 1 to 10 µM.

`NC1CCN(C(=O)[C@H](NS(=O)(=O)c2ccc(OCC3CCCCC3)cc2)C(F)(F)c2ccc(-c3ccc(Cl)s3)cc2)CC1` [Compound 117-2, (S)—N-(3-(4-aminopiperidin-1-yl)-1-(4-(5-chlorothiophen-2-yl)phenyl)-1,1-difluoro-3-oxopropan-2-yl)-4-(cyclohexylmethoxy) benzenesulfonamide] gave an IC50 of 10 to 30 µM. For the molecule `CCCCOc1cc(C(F)(F)[C@H](NS(=O)(=O)c2ccc3cc(OC4CCCC4)ccc3c2)C(=O)N2C3CCC2CC(N)C3)ccc1Cl` (stereo partly drawn) [Compound 118-1, N-((2R)-3-(3-amino-8-azabicyclo[3.2.1]octan-8-yl)-1-(3-butoxy-4-chlorophenyl)-1,1-difluoro-3-oxopropan-2-yl)-6-(cyclopentyloxy)naphthalene-2-sulfonamide], the 50% inhibitory concentration (IC50) is below 1 µM. The result for `CCCCOc1cc(C(F)(F)[C@@H](NS(=O)(=O)c2ccc3cc(OC4CCCC4)ccc3c2)C(=O)N2C3CCC2CC(N)C3)ccc1Cl` (stereo partly drawn) [Compound 118-2, N-((2S)-3-(3-amino-8-azabicyclo[3.2.1]octan-8-yl)-1-(3-butoxy-4-chlorophenyl)-1,1-difluoro-3-oxopropan-2-yl)-6-(cyclopentyloxy) naphthalene-2-sulfonamide] reads 1 to 10 µM; that for `CCCCOc1cc(C(F)(F)[C@H](NS(=O)(=O)c2ccc(OCC3CCCCC3)cc2)C(=O)N2C3CCC2CC(N)C3)ccc1Cl` (stereo partly drawn) [Compound 120-1, N-((2R)-3-(3-amino-8-azabicyclo[3.2.1]octan-8-yl)-1-(3-butoxy-4-chlorophenyl)-1,1-difluoro-3-oxopropan-2-yl)-4-(cyclohexylmethoxy) benzenesulfonamide], below 1 µM. In turn, `CCCCOc1cc(C(F)(F)[C@@H](NS(=O)(=O)c2ccc(OCC3CCCCC3)cc2)C(=O)N2C3CCC2CC(N)C3)ccc1Cl` (stereo partly drawn) [Compound 120-2, N-((2S)-3-(3-amino-8-azabicyclo[3.2.1]octan-8-yl)-1-(3-butoxy-4-chlorophenyl)-1,1-difluoro-3-oxopropan-2-yl)-4-(cyclohexylmethoxy)benzenesulfonamide] came in with an IC50 of 1 to 10 µM. To `NC1CC2CCC(C1)N2C(=O)[C@@H](NS(=O)(=O)c1ccc2cc(OC3CCCC3)ccc2c1)C(F)(F)c1ccc(Oc2ccc(Cl)cc2)cc1` (stereo partly drawn) [Compound 121-1, N-((2R)-3-(3-amino-8-azabicyclo[3.2.1]octan-8-yl)-1-(4-(4-chlorophenoxy)phenyl)-1,1-difluoro-3-oxopropan-2-yl)-6-(cyclopentyloxy) naphthalene-2-sulfonamide] belongs below 1 µM; to `NC1CC2CCC(C1)N2C(=O)[C@H](NS(=O)(=O)c1ccc2cc(OC3CCCC3)ccc2c1)C(F)(F)c1ccc(Oc2ccc(Cl)cc2)cc1` (stereo partly drawn) [Compound 121-2, N-((2S)-3-(3-amino-8-azabicyclo[3.2.1]octan-8-yl)-1-(4-(4-chlorophenoxy)phenyl)-1,1-difluoro-3-oxopropan-2-yl)-6-(cyclopentyloxy)naphthalene-2-sulfonamide], 1 to 10 µM; to `N[C@@H]1CCCN(C(=O)[C@@H](NS(=O)(=O)c2ccc3cc(OC4CCCC4)ccc3c2)C(F)(F)c2ccc(Br)cc2)C1` [Compound 122-1, N—((R)-3-((R)-3-aminopiperidin-1-yl)-1-(4-bromophenyl)-1,1-difluoro-3-oxopropan-2-yl)-6-(cyclopentyloxy)naphthalene-2-sulfonamide], 1 to 10 µM.

Molecule `N[C@@H]1CCCN(C(=O)[C@H](NS(=O)(=O)c2ccc3cc(OC4CCCC4)ccc3c2)C(F)(F)c2ccc(Br)cc2)C1` [Compound 122-2, N—((S)-3-((R)-3-aminopiperidin-1-yl)-1-(4-bromophenyl)-1,1-difluoro-3-oxopropan-2-yl)-6-(cyclopentyloxy)naphthalene-2-sulfonamide] gave an IC50 of 30 to 100 µM. Consider `COc1cc(C(F)(F)[C@H](NS(=O)(=O)c2ccc3cc(OC4CCCC4)ccc3c2)C(=O)N2CCC(N)CC2)ccc1Cl` [Compound 123-1, (R)—N-(3-(4-aminopiperidin-1-yl)-1-(4-chloro-3-methoxyphenyl)-1,1-difluoro-3-oxopropan-2-yl)-6-(cyclopentyloxy)naphthalene-2-sulfonamide], for which the 50% inhibitory concentration (IC50) is below 1 µM.

`COc1cc(C(F)(F)[C@@H](NS(=O)(=O)c2ccc3cc(OC4CCCC4)ccc3c2)C(=O)N2CCC(N)CC2)ccc1Cl` [Compound 123-2, (S)—N-(3-(4-aminopiperidin-1-yl)-1-(4-chloro-3-methoxyphenyl)-1,1-difluoro-3-oxopropan-2-yl)-6-(cyclopentyloxy)naphthalene-2-sulfonamide] displayed a half-inhibitory concentration (IC50) of 1 to 10 µM.

`COc1cc(C(F)(F)[C@H](NS(=O)(=O)c2ccc3cc(OC4CCCC4)ccc3c2)C(=O)N2C3CCC2CC(N)C3)ccc1Cl` (stereo partly drawn) [Compound 124-1, N-((2R)-3-(3-amino-8-azabicyclo[3.2.1]octan-8-yl)-1-(4-chloro-3-methoxyphenyl)-1,1-difluoro-3-oxopropan-2-yl)-6-(cyclopentyloxy)naphthalene-2-sulfonamide]: the IC50 was below 1 µM.

In turn, `COc1cc(C(F)(F)[C@H](NS(=O)(=O)c2ccc(OCC3CCCCC3)cc2)C(=O)N2C3CCC2CC(N)C3)ccc1Cl` (stereo partly drawn) [Compound 125-1, N-((2R)-3-(3-amino-8-azabicyclo[3.2.1]octan-8-yl)-1-(4-chloro-3-methoxyphenyl)-1,1-difluoro-3-oxopropan-2-yl)-4-(cyclohexylmethoxy) benzenesulfonamide] yielded an IC50 below 1 µM. `COc1cc(C(F)(F)[C@@H](NS(=O)(=O)c2ccc(OCC3CCCCC3)cc2)C(=O)N2C3CCC2CC(N)C3)ccc1Cl` (stereo partly drawn) [Compound 125-2, N-((2S)-3-(3-amino-8-azabicyclo[3.2.1]octan-8-yl)-1-(4-chloro-3-methoxyphenyl)-1,1-difluoro-3-oxopropan-2-yl)-4-(cyclohexylmethoxy)benzenesulfonamide] came in with a half-inhibitory concentration (IC50) of 10 to 30 µM. `CCCCOc1cc(C(F)(F)[C@H](NS(=O)(=O)c2ccc3cc(OC4CCCC4)ccc3c2)C(=O)N2CCC(N)CC2)ccc1Cl` [Compound 126-1, (R)—N-(3-(4-aminopiperidin-1-yl)-1-(3-butoxy-4-chlorophenyl)-1,1-difluoro-3-oxopropan-2-yl)-6-(cyclopentyloxy)naphthalene-2-sulfonamide]: the concentration for half-maximal inhibition (IC50) was below 1 µM.
